{
  "source": "paper PMC12842892",
  "about": "“Truncated Equinin B Variants Reveal the Sequence Determinants of Antimicrobial Selectivity” (Marine Drugs, 2026)",
  "key": {"[1]": {"tested_on": "Staphylococcus epidermidis DSM 20044", "format": "cell-based", "description": "(§1) For these studies we used reference strains Escherichia coli ATCC25922, Bacillus subtilis 168c, Staphylococcus epidermidis DSM 20044 (DSMZ Gmbh, Brauschweig, Germany) and Enterococcus hirae DSM 3320 (DSMZ Gmbh, Germany). Bacterial cells were inoculated into Mueller–Hinton Broth II (MHB II; Sigma-Aldrich, Steinheim, Germany) and grown to the mid-logarithmic phase, washed in sodium buffered saline (PBS, 137 mM NaCl, 2.7 mM KCl, 10 mM Na2HPO4, and 2 mM KH2PO4, pH 7.4). The culture was adjusted to ~1 × 10^6 CFU/mL and dispensed into 96-well microtiter plates. Peptides were tested in two-fold serial dilutions across a concentration range of 0.4–100 µM, each concentration assayed in duplicate. Growth control wells (bacteria + medium, no peptide) and sterility control wells (medium only) were included. In parallel, the inoculum density and purity were verified by plating serial dilutions of the bacterial culture on MHB agar. After incubation at 37 °C for 20 h under static conditions, bacterial growth was quantified by measuring optical density at 620 nm (OD 620). […] The experiment was repeated in three independent biological replicates."}, "[2]": {"tested_on": "Gram-positive and Gram-negative bacteria", "settings": "cited from earlier work", "from_the_text": "Even though the discovery of antibiotics revolutionized medicine, their inappropriate use has enabled the spread of resistant bacteria and rendered commercially available antibiotics ineffective. Antibiotic resistance (AR) is one of the greatest threats, and the development of new molecules with antibacterial activity has become a global priority. Antimicrobial peptides (AMPs), naturally occurring defense molecules found across many species, represent a powerful alternative antibacterial strategy against antibiotic-resistant pathogens. As part of the innate immune response, ..."}, "B. subtilis": {"tested_on": "B. subtilis", "assay": "Membrane permeability assay (propidium iodide uptake), B. subtilis", "format": "cell-based, Bacillus subtilis", "settings": "1 × 10^7 cells/mL in PBS; PI 2.5 µg/mL; up to 400 µM; 37 °C, 120 min; fluorescence 535/617 nm; three independent experiments in duplicates", "description": "(§2) Bacterial membrane permeabilization was evaluated using propidium iodide (PI) uptake. PI is a membrane-impermeable dye: it cannot cross intact bacterial cytoplasmic membranes, but when the membrane integrity is compromised (for example, via peptide-mediated permeabilization), PI enters the cell, intercalates into nucleic acids (DNA and RNA) and fluorescence increases markedly. B. subtilis, E. hirae and S. epidermidis cells were grown to mid-logarithmic phase, harvested by centrifugation, washed once with PBS and diluted to a concentration of 1 × 10^7 cells/mL using PBS instead of growth medium. […] Fluorescence (excitation 535 nm, emission 617 nm) was monitored every 2 min for 120 min at 37 °C using a microplate reader (GloMax®, Promega, Madison, WI, USA). The time-course fluorescence curves were recorded for each peptide concentration (in duplicate for each time point, and the entire experiment was repeated three independent times). From each time-course fluorescence curve (for a given peptide concentration), a constant time-window (for example minutes 10 to 20) was selected where the fluorescence signal was stable or in the linear uptake phase. The fluorescence values within that window were averaged to provide a representative fluorescence uptake value for that peptide concentration. […]"}, "S. epidermidis": {"tested_on": "S. epidermidis", "assay": "Membrane permeability assay (propidium iodide uptake), S. epidermidis", "format": "cell-based, Staphylococcus epidermidis", "settings": "1 × 10^7 cells/mL in PBS; PI 2.5 µg/mL; 37 °C, 120 min", "description": "as §2"}, "E. hirae": {"tested_on": "E. hirae", "assay": "Membrane permeability assay (propidium iodide uptake), E. hirae", "format": "cell-based, Enterococcus hirae", "settings": "1 × 10^7 cells/mL in PBS; PI 2.5 µg/mL; 37 °C, 120 min", "description": "as §2"}, "[3]": {"tested_on": "Escherichia coli ATCC25922", "format": "cell-based", "settings": "E. coli ATCC25922; cation-adjusted MHB II; ~1 × 10^6 CFU/mL; two-fold dilutions; 37 °C, 20 h; OD 620; three independent replicates, duplicates", "description": "as §1"}},
  "note": "Where two headings read alike, the source gives them in different places. Where a SMILES comes first, the peptide text is derived from it. Where no end group is shown, it is not given here.",
  "data": [
    {"molecule": "CC[C@H](C)[C@H](NC(=O)[C@H](CS)NC(=O)[C@@H](N)CCCNC(=N)N)C(=O)N[C@@H](CCCNC(=N)N)C(=O)N[C@@H](CCCNC(=N)N)C(=O)N[C@@H](CS)C(=O)N[C@@H](Cc1ccccc1)C(=O)NCC(=O)N[C@@H](Cc1ccc(O)cc1)C(=O)N[C@@H](CS)C(=O)N[C@@H](CC(C)C)C(=O)O", "note": "[EB3, Arg-Cys-Ile-Arg-Arg-Cys-Phe-Gly-Tyr-Cys-Leu] (H-RCIRRCFGYCL-OH)", "values": [
      {"measurement": "MIC against S. epidermidis", "setting": "[1]; DSM 20044, 20 h", "result": 25, "unit": "µM"}
    ]},
    {"molecule": "GQCQRKCLGHCSKKCPKHPQCRKRCIRRCFGYCL [Equinin B, 34-residue marine antimicrobial peptide isolated from the tentacle of Actinia equina]", "values": [
      {"measurement": "bactericidal concentrations", "setting": "[2]", "result": 0.25, "unit": "mg/mL"},
      {"measurement": "minimum inhibitory concentrations (MICs)", "setting": "[2]", "result": 1000, "unit": "µg/mL"}
    ]},
    {"molecule": "LL-37 (LLGDFFRKSKEKIGKEFKRIVQRIKDFLRNLVPRTES; Antibacterial peptide LL-37; UniProt P49913 134-170, looked up)", "values": [
      {"measurement": "membrane permeabilization of B. subtilis (PI uptake), in words", "setting": "B. subtilis", "result": "extensive membrane permeabilization"},
      {"measurement": "membrane permeabilization of S. epidermidis (PI uptake), in words", "setting": "S. epidermidis", "result": "unable to permeabilize"},
      {"measurement": "membrane permeabilization of E. hirae (PI uptake), in words", "setting": "E. hirae", "result": "unable to permeabilize"}
    ]},
    {"molecule": "RRIRRRFGYRL [EB3-C, Arg-Arg-Ile-Arg-Arg-Arg-Phe-Gly-Tyr-Arg-Leu]", "values": [
      {"measurement": "MIC90, Staphylococcus epidermidis", "setting": "[1]; DSM 20044, 20 h", "result": "25 to 50", "unit": "µg/mL"}
    ]},
    {"molecule": "RRIRRRGYRL-OH [EB3a-C, Arg-Arg-Ile-Arg-Arg-Arg-Gly-Tyr-Arg-Leu]", "values": [
      {"measurement": "antimicrobial activity against S. epidermidis, in words", "setting": "[1]; MIC assay, up to 100 µM", "result": "abolished activity"},
      {"measurement": "MIC90, Staphylococcus epidermidis", "setting": "[1]; S. epidermidis DSM 20044, cation-adjusted MHB II, ~1 × 10^6 CFU/mL, two-fold dilutions, 37 °C, 20 h, OD 620, three independent replicates, duplicates", "result": ">100", "unit": "µg/mL"},
      {"measurement": "MIC90, Escherichia coli", "setting": "[3]", "result": ">100", "unit": "µg/mL"}
    ]}
  ]
}
